Data set [1] concerns mouse embryonic fibroblast cells (MEFs). Description: Cell morphology and attachment of MEFs. It is filed as cell-based.
Data set [2] has as its system phosphorylation of Rab12 (Ser105). Description: Rab12 phospho-immunoblot in wild-type MEFs. It counts as cell-based, mouse. How it is done: (§1) Wild-type and homozygous LRRK2 [R1441C] (Jax, stock number: 009346), LRRK2[G2019S] Taconic, (model 13940) and LRRK2 [A2016T] (Jax, stock number: 021828)[7] knock-in MEF cells were isolated from littermate-matched mouse embryos on a C57BL/6J background at day E12.5 as described previously. MEFs were grown in Dulbecco's modified Eagle medium (DMEM GIBCO, #11960-085) containing 10% (by vol) fetal bovine serum (FBS), 2 mM L-glutamine, 100 U/ml penicillin, and […] streptomycin supplemented with non-essential amino acids and 1 mM sodium pyruvate. Human embryonic kidney 293 (HEK293) (#ATCC CRL-1573) and HeLa (#ATCC CCL-2) cells were purchased from American Tissue Culture Collection (ATCC) and cultured in DMEM containing 10% (by vol) FBS, 2 mM L-glutamine, 100 U/ml penicillin, and […] streptomycin. All cells were grown at 37°C, 5% (by vol) CO2 in a humidified atmosphere and regularly tested for mycoplasma contamination.
(§2) Inhibitors were dissolved in dimethyl sulfoxide (DMSO) (Sigma, #D2650). The inhibitors were diluted 1000× into cell medium. The equivalent volume of DMSO was added to the minus inhibitor controls. Experiments were performed in six-well plates, 10 cm dishes or 15 cm dishes depending on the amount of cell extract required.
(§3) Cells were lysed in an ice-cold lysis buffer containing 50 mM Tris–HCl, pH 7.4, 1% (by vol) Triton X-100, 10% (by vol) glycerol, 150 mM NaCl, 1 mM sodium orthovanadate, 50 mM NaF, 10 mM 2-glycerophosphate, 5 mM sodium pyrophosphate, 1 µg/ml microcystin-LR, and cOmplete EDTA-free protease inhibitor cocktail (Roche, #11836170001). Lysates were incubated on ice for 30 min and clarified by centrifugation at 20 800×g at 4°C for 20 min. Supernatants were quantified by Bradford assay (Bio-Rad Protein Assay Dye Reagent Concentrate #5000006) and samples prepared in 1× lithium dodecyl sulfate sample buffer final concentration (NuPage LDS Sample buffer 4× Invitrogen, #NP0008). When not deployed immediately, lysates were snap-frozen in liquid nitrogen and stored at −80°C until use.
Cell extracts were mixed with a quarter of a volume of NuPage LDS Sample buffer 4× Invitrogen and heated at 95°C for 5 min. […] At the end of electrophoresis, proteins were electrophoretically transferred onto the nitrocellulose membrane (GE Healthcare, Amersham Protran Supported 0.45 µm NC) at 100 V for 90 min on ice in the transfer buffer (48 mM Tris–HCl and 39 mM glycine supplemented with 20% methanol). Transferred membrane was blocked with 5% (w/v) skim milk powder dissolved in TBS-T [20 mM Tris–HCl, pH 7.5, 150 mM NaCl and 0.1% (v/v) Tween 20] at room temperature for 1 h. […]
On the technique in general: Immunoblotting shows a protein as a band on a membrane.

Data set [3] concerns Rab29 mediated relocalization of LRRK2 to the Golgi apparatus. Description: Rab29 mediated recruitment of LRRK2 to the Golgi, immunofluorescence in HeLa cells. As to conditions: 5 μM GZD-824 or 1 μM GSK3357679A for 4 h. It is filed as cell-based, human. How it is done:
HeLa cells were seeded on coverslips and transfected with the plasmid reported in each image 24 h before fixation. Following the treatments with the inhibitors described in figure legends, cells were washed twice in DPBS and fixed with 3.7% Paraformaldehyde pH 7.3 (Agar scientific, #R1026), 200 mM HEPES, for 20 min. Cells were then washed twice with DMEM, 20 mM HEPES, and then incubated for 10 min with DMEM, 10 mM HEPES. After two washes in DPBS, fixed cells were permeabilized with 0.2% (by vol) NP-40 in DPBS for 10 min. Cells were blocked using 1% (by mass) BSA in DPBS, then incubated for 1 h with primary antibodies diluted in 1% (by mass) BSA in DPBS, washed three times in 0.2% (by mass) BSA in DPBS, and incubated for 1 h with secondary antibodies. The coverslips were washed three times with 0.2% (by mass) BSA in PBS. Coverslips were washed once more in double distilled water and mounted on slides (VWR, #631-0909) using ProLong™ Diamond Antifade Mountant (ThermoFisher, #P36961). For localization of the Golgi compartment, Golgin-97 was stained with rabbit anti-GM97 (CST, #D8P2K) and visualized with goat anti-rabbit conjugated to Alexa Fluor 405 (Life Technologies, #P10994). HA-Rab29 was stained with mouse anti-HA (Abcam, clone HA.C5 #ab18181) and visualized with goat anti-mouse conjugated to Alexa Fluor 594 (Life Technologies, #A-11032). […]

Data set [4] deals with Rab10 pThr73, LRRK2 [R1441C]. Description: Rab10 Thr73 phospho-immunoblot in LRRK2[R1441C] knock-in MEFs. It counts as cell-based, mouse. Conditions: LRRK2[R1441C] knock-in MEFs, 2 h, read-out: LRRK2 [R1441C] Rab10 pThr73 IC50. As for the experimental part: as §1, §2
as §3, with “use. […]” for “use.”

pIC50: −log10 of the molar value. Where two headings read alike, the source gives them in different places.

A word on the pIC50: it is the negative decadic logarithm of the IC50, by convention in mol/L. `Cc1ccc(C(=O)Nc2ccc(CN3CCN(C)CC3)c(C(F)(F)F)c2)cc1C#Cc1cnc2[nH]ncc2c1` [GZD-824]: the “concentration that impacted cell morphology and attachment” value in data set [1] was at least 10 μM. The “Rab12 phosphorylation level after treatment” value in data set [2] (1 μM, 2 h) is listed as “almost background levels”. Besides, the “Rab12 phosphorylation over 24 h time course” value in data set [2] (1 μM, 24 h) is “remained suppressed”. Also, the “time to 50% reduction of Rab12 phosphorylation” value in data set [2] (1 μM, Figure 2C) is about 10 min. The pIC50 is about 6.52 in data set [2] (Mus musculus, 2 h, Figure 2A, read-out: IC50 inhibition of Rab12 phosphorylation); 6.58 in data set [4]; 6.58 in data set [4] (Mus musculus). Also, the “impact on Rab29 mediated recruitment of LRRK2 to the Golgi” value in data set [3] is on record as “did not significantly impact”.

For the origin of these results see PMC8589421, “Impact of Type II LRRK2 inhibitors on signaling and mitophagy” (Biochemical Journal, 2021).
